The results in this text go back to patent publication US9051325B2, “Bicyclic [5,6] imidazo pyrimodone compounds for use in the treatment of diseases or conditions mediated by Lp-PLA2” (GlaxoSmithKline Intellectual Property Development Limited, priority 2013, dated 2015).

Some results are limits rather than exact numbers.

The first assay concerns the target T1, Lp-PLA2 in human plasma (Homo sapiens, UniProt Q13093).
T1 construct: from tissue; host or cells: pooled human plasma
T1 sequence (Q13093 22-441): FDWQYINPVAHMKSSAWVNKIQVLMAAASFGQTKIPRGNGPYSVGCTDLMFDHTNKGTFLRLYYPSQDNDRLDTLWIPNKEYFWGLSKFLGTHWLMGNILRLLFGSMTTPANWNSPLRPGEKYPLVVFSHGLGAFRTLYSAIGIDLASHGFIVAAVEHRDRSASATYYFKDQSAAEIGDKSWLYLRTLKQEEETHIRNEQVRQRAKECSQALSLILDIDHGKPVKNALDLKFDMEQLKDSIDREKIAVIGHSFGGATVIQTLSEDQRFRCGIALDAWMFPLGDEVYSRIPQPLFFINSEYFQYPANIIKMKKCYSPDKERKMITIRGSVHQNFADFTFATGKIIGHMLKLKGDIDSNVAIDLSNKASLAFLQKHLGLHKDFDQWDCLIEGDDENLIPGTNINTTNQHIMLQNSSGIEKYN
As to the kind of experiment: Lp-PLA2 human plasma assay (Thio-PAF assay). It is filed as biochemical. The following applies: pooled human plasma; lower bounds; read-out: pIC50 values in the thio-PAF assay (converted). An excerpt: (3) Lipoprotein-Associated Phospholipase A2 (Lp-PLA2) Human Plasma Assay (Also Referred to as “Thio-PAF assay”)
The human plasma assay utilizes a thioester analog of PAF (phosphatidylcholine), where hydrolysis yields to the formation of a phospholipid containing a free thiol group. The amount of thiol is quantitated continuously by reacting with CPM (7-diethylamino-3-(4′-maleimidylphenyl)-4-methylcoumarin), a maleimide which increases in fluoresence after Michael addition of thiols. This assay may detect the activity of Lp-PLA2 in human plasma, as determined by specific inhibition by Lp-PLA2 inhibitors.
The thio-PAF assay was run as a quenched 15 μL assay. Compounds source plate was prepared by making 1:3 (by volume) serial dilution of the compounds into pure DMSO on 384-well microplate. 0.01 μL of compounds on compound source plate were transferred to 384 well Greiner 784076 (black) low-volume plates by ECHO liquid dispenser. 8 μL pooled human plasma, which was previously aliquoted and frozen, was added. Plates were centrifuged for 10 sec at 500 rpm. After 30 minutes preincubation, 2 μL of substrate solution comprising 2.5 mM 2-thio-PAF [from ethanol stock], 32 μM CPM [from a DMSO stock] and 3.2 mM NEM (N-ethylmaleimide) [made fresh daily in DMSO] in assay buffer of 50 mM HEPES, pH 7.4, 150 mM NaCl, 1 mM CHAPS was added to 384 well Greiner 784076 (black) low-volume plates by BRAVO liquid handling station. After 2 mins, reaction was quenched with 5 μL of 5% aqueous trifluoroacetic acid (TFA). Plates were covered to protect from light and incubated for 40 min at room temperature. Plates were read at ex: 380/em: 485 using-Envision microplate reader. PIC50 data, curve and QC analysis were conducted by using XLFit module in Excel.
On to `C[C@@H]1Cn2c(cc(OCc3cccc(C#N)c3)nc2=O)N1C` [Example E33, (R)-3-(((1,2-dimethyl-5-oxo-1,2,3,5-tetrahydroimidazo[1,2-c]pyrimidin-7-yl)oxy)methyl)benzonitrile], for which the IC50 is no more than 100 nM.
On to `CN1c2cc(OCCC3CCCC3)nc(=O)n2CC1(C)C` [Example E52, 7-(2-cyclopentylethoxy)-1,2,2-trimethyl-2,3-dihydroimidazo[1,2-c]pyrimidin-5(1H)-one], for which the IC50 was no more than 100 nM.
The same measure, in the same setting: the value for `C[C@H]1Cn2c(cc(OCc3cccc(C#N)c3)nc2=O)N1C` [Example E72, (S)-3-(((1,2-dimethyl-5-oxo-1,2,3,5-tetrahydroimidazo[1,2-c]pyrimidin-7-yl)oxy)methyl)benzonitrile] was no more than 100 nM; that for `C[C@H]1Cn2c(cc(OCc3cc(F)cc(F)c3)nc2=O)N1` [Example E85, (S)-7-((3,5-difluorobenzyl)oxy)-2-methyl-2,3-dihydroimidazo[1,2-c]pyrimidin-5(1H)-one] was no more than 100 nM.

The next assay addresses T2, recombinant human Lp-PLA2 (Homo sapiens, UniProt Q13093).
T2 sequence (Q13093 22-441): T1 sequence (Q13093 22-441)
As to the kind of experiment: Recombinant human Lp-PLA2 assay (rhLp-PLA2, PED6 assay). The format is biochemical. The following applies: lower bounds; read-out: pIC50 values in the PED6 assay (converted). An excerpt: (1) Recombinant Human Lp-PLA2 Assay (rhLp-PLA2) (Also Referred to as “PED6” Assay)
N-((6-(2,4-dinitrophenyl)amino)-hexanoyl)-2-(4,4-difluoro-5,7-dimethyl-4-bora-3a,4a-diaza-s-indacene-3-pentanoyl)-1-hexadecanoyl-sn-glycero-3-phosphoethanolamine, triethylammonium salt (PED6) is a commercially available fluorescently-labeled phospholipid, which is commercially available from Invitrogene and Molecular Probes. There is a quenching […] and a Bodipy fluorescein (FL) group in the sn2 position. Upon cleavage with Lp-PLA2, the Bodipy FL group is liberated and then may result in an increase in fluorescence. Inhibitors of Lp-PLA2 therefore prevent this cleavage and no fluorescent increase is observed.
The PED6 assay was run as an unquenched 10 μL assay. The source plate containing the compounds to be tested was prepared by making 1:3 (by volume) serial dilution of the compounds within DMSO on 384-well microplate. Then, 0.01 μL of the compounds on compound source plate were transferred into 384 well Greiner 784076 (black) plates using ECHO liquid dispenser. 5 μL of recombinant human Lp-PLA2 enzyme (4 nM (or […]) rhLp-PLA2 in assay buffer of 50 mM HEPES, pH 7.4, 150 mM NaCl, 1 mM CHAPS) was added to each well of the plate. Plates were centrifuged for 10 sec at 500 rpm. After 30 minutes preincubation, 5 μL of substrate ([…] PED6 [from 5 mM DMSO stock] in assay buffer of 50 mM HEPES, pH 7.4, 150 mM NaCl, 1 mM CHAPS) was added to 384 well Greiner 784076 (black) plates. Plates were centrifuged for 10 sec at 500 rpm. The plate was covered to protect it from light and incubated for 20 min at room temperature. The plates were read for fluorescence intensity at ex: 480/em: 540 using ViewLux microplate imager for Envision spectrofluoroimeters pIC50 data, curve and QC analysis was conducted by using XL fit module in Excel.
For `C[C@H]1Cn2c(cc(OCc3ccc(Oc4ccc(C(F)(F)F)nc4)c(F)c3)nc2=O)N1C` [Example E6, (S)-7-((3-fluoro-4-((6-(trifluoromethyl)pyridin-3-yl)oxy)benzyl)oxy)-1,2-dimethyl-2,3-dihydroimidazo[1,2-c]pyrimidin-5(1H)-one], the IC50 was no more than 1 nM.
The same measure, in the same setting: for `C[C@H]1Cn2c(cc(OCc3ccc(F)c(F)c3)nc2=O)N1` [Example E9, (S)-7-((3,4-difluorobenzyl)oxy)-2-methyl-2,3-dihydroimidazo[1,2-c]pyrimidin-5(1H)-one] the value was no more than 10 nM.
The same measure, in the same setting: for `O=c1nc(OCc2ccc(Oc3ccc(Cl)c(C(F)(F)F)c3)cc2)cc2n1CCN2C1CC1` [Example E17, 7-((4-(4-chloro-3-(trifluoromethyl)phenoxy)benzyl)oxy)-1-cyclopropyl-2,3-dihydroimidazo[1,2-c]pyrimidin-5(1H)-one] the value was no more than 10 nM.
For the compound `CN1c2cc(OCc3cccc(Cl)c3)nc(=O)n2CC1(C)C` [Example E21, 7-((3-chlorobenzyl)oxy)-1,2,2-trimethyl-2,3-dihydroimidazo[1,2-c]pyrimidin-5(1H)-one], the IC50 was no more than 10 nM.
With `[2H]C([2H])(Oc1cc2n(c(=O)n1)C[C@H](C)N2C)c1ccc(F)c(F)c1` [Example E22, (S)-7-(dideutero(3,4-difluorophenyl)methoxy)-1,2-dimethyl-2,3-dihydroimidazo[1,2-c]pyrimidin-5(1H)-one], the IC50 was no more than 10 nM.
For the compound `C[C@H]1Cn2c(cc(OCc3ccc(Oc4cncc(C#N)c4)c(F)c3)nc2=O)N1C` [Example E24, (S)-5-(4-(((1,2-dimethyl-5-oxo-1,2,3,5-tetrahydroimidazo[1,2-c]pyrimidin-7-yl)ox-y)methyl)-2-fluorophenoxy)nicotinonitrile], the IC50 was no more than 10 nM.
Still for that read-out and setting: the value for `C[C@H]1Cn2c(cc(OCc3ccc(Oc4cccc(F)c4)c(F)c3)nc2=O)N1C` [Example E27, (S)-7-((3-fluoro-4-(3-fluorophenoxy)benzyl)oxy)-1,2-dimethyl-2,3-dihydroimidazo-[1,2-c]pyrimidin-5(1H)-one] was no more than 10 nM; that for `C[C@H]1Cn2c(cc(OCc3ccc(Oc4cccc(F)c4)c(F)c3)nc2=O)N1` [Example E28, (S)-7-((3-fluoro-4-(3-fluorophenoxy)benzyl)oxy)-2-methyl-2,3-dihydroimidazo[1,2-c]pyrimidin-5(1H)-one] was no more than 10 nM; that for `CN1c2cc(OCc3ccc(Cl)c(F)c3)nc(=O)n2CC1(C)C` [Example E36, 7-((4-chloro-3-fluorobenzyl)oxy)-1,2,2-trimethyl-2,3-dihydroimidazo[1,2-c]pyrimidin-5(1H)-one] was no more than 10 nM.
Consider `C[C@H]1Cn2c(cc(OCc3ccc(Oc4ccc(F)cc4)c(C#N)c3)nc2=O)N1C` [Example E57, (S)-5-(((1,2-dimethyl-5-oxo-1,2,3,5-tetrahydroimidazo[1,2-c]pyrimidin-7-yl)oxy)methyl)-2-(4-fluorophenoxy)benzonitrile], for which the IC50 was no more than 1 nM.
Still for that read-out and setting: for `C[C@H]1Cn2c(cc(OCc3ccc(Oc4ccc(C(F)(F)F)nc4)c(F)c3)nc2=O)N1` [Example E62, (S)-7-((3-fluoro-4-((6-(trifluoromethyl)pyridin-3-yl)oxy)benzyl)oxy)-2-methyl-2,3-dihydroimidazo[1,2-c]pyrimidin-5(1H)-one] the value was no more than 1 nM; for `C[C@H]1Cn2c(cc(OCc3cc(F)c(Oc4cccc(F)c4)c(F)c3)nc2=O)N1C` [Example E76, (S)-7-((3,5-difluoro-4-(3-fluorophenoxy)benzyl)oxy)-1,2-dimethyl-2,3-dihydroimidazo[1,2-c]pyrimidin-5(1H)-one], no more than 1 nM; for `[2H]C([2H])(Oc1cc2n(c(=O)n1)C[C@H](C)N2C)c1cc(F)c(F)c(F)c1` [Example E86, (S)-7-(dideutero(3,4,5-trifluorophenyl)methoxy)-1,2-dimethyl-2,3-dihydroimidazo[1,2-c]pyrimidin-5(1H)-one], no more than 10 nM.
With `CN1c2cc(OCc3cc(F)ccc3F)nc(=O)n2CC1(C)C` [Example E92, 7-((2,5-difluorobenzyl)oxy)-1,2,2-trimethyl-2,3-dihydroimidazo[1,2-c]pyrimidin-5(1H)-one], the IC50 is no more than 10 nM.
For `C[C@H]1Cn2c(cc(OCc3ccc(Oc4ccc(F)cc4)c(F)c3)nc2=O)N1C` [Example E94, (S)-7-((3-fluoro-4-(4-fluorophenoxy)benzyl)oxy)-1,2-dimethyl-2,3-dihydroimidazo[1,2-c]pyrimidin-5(1H)-one], the IC50 is no more than 10 nM.
On the same count and under the same terms, the value for `N#Cc1cc(COc2cc3n(c(=O)n2)CCN3C2CC2)ccc1Oc1ccc(F)c(F)c1` [Example E118, 5-(((1-cyclopropyl-5-oxo-1,2,3,5-tetrahydroimidazo[1,2-c]pyrimidin-7-yl)oxy)methyl)-2-(3,4-difluorophenoxy)benzonitrile] was no more than 10 nM; that for `CN1c2cc(OCc3cc(F)cc(Cl)c3)nc(=O)n2CC1(C)C` [Example E125, 7-((3-chloro-5-fluorobenzyl)oxy)-1,2,2-trimethyl-2,3-dihydroimidazo[1,2-c]pyrimidin-5(1H)-one] was no more than 10 nM.
With `C[C@H]1Cn2c(cc(OCc3cc(F)c(Oc4ccc(F)c(F)c4)c(F)c3)nc2=O)N1C` [Example E126, (S)-7-((4-(3,4-difluorophenoxy)-3,5-difluorobenzyl)oxy)-1,2-dimethyl-2,3-dihydroimidazo[1,2-c]pyrimidin-5(1H)-one], the IC50 was no more than 1 nM.
Consider `C[C@H]1Cn2c(cc(OCc3ccc(Oc4ccc(F)cc4)c(F)c3)nc2=O)N1` [Example E130, (S)-7-((3-fluoro-4-(4-fluorophenoxy)benzyl)oxy)-2-methyl-2,3-dihydroimidazo[1,2c]pyrimidin-5(1H)-one], for which the IC50 was no more than 10 nM.
